Active and inactive are the calls of the source. The calls are words filed in the database; no cut-off is given here.

Experiment [1] concerns HL-60. Put plainly: Inhibition of colony formation in human HL60 cells preincubated for 72 hrs followed by compound washout and measured after 7 to 10 days. The class given is functional, cell-based.
The subject of experiment [2] is NB-4. Put plainly: Induction of cell differentiation in human NB4 cells assessed as increase in CD11c-APC positive cells after 6 days by flow cytometry analysis. The class given is functional, cell-based. Background: A flow cytometer gives signals particle by particle.
For experiment [3], the system named is HL-60. Kind of experiment: Induction of monocytic differentiation in human HL60 cells assessed as increase in CD11b-APC-Cy7 positive cells at 30 uM after 6 days by flow cytometry analysis. The class given is functional, cell-based.
Experiment [4] relates to NB-4. Put plainly: Induction of monocytic differentiation in human NB4 cells assessed as increase in CD11b-APC-Cy7 positive cells at 30 uM after 6 days by flow cytometry analysis. The class given is functional, cell-based.
Experiment [5] concerns NB-4. Put plainly: Induction of monocytic differentiation in human NB4 cells assessed as increase in CD11c-APC positive cells at 30 uM after 6 days by flow cytometry analysis. It counts as functional, cell-based.
Experiment [6] relates to HL-60. Kind of experiment: Induction of monocytic differentiation in human HL60 cells assessed as increase in CD14-FITC positive cells at 30 uM after 6 days by flow cytometry analysis. It counts as functional, cell-based.
The test system of experiment [7] is NB-4. Put plainly: Induction of monocytic differentiation in human NB4 cells assessed as increase in CD14 positive cells at 30 uM after 6 days by FITC staining based flow cytometry analysis. The class given is functional, cell-based.
For experiment [8], the target named is AP2-associated protein kinase 1 (Homo sapiens) (UniProt Q2M2I8). Put plainly: Inhibition of human AAK1 assessed as residual activity at 1 uM using peptide as substrate incubated for 120 mins in presence of [gamma-33ATP] by scintillation counting based radiometry assay relative to control.
For experiment [9], the target named is Cyclin-Y/Cyclin-dependent kinase 16 (Homo sapiens) (UniProt Q00536+Q8ND76). Kind of experiment: Inhibition of recombinant full length human CDK16/cyclinY assessed as residual activity at 1 uM using PKSPKARKKL as substrate incubated for 120 mins in presence of [gamma-33ATP] by scintillation counting based radiometry assay relative to control. The class given is protein-complex assay.

Experiment [10] has as its target CDK17/Cyclin-Y (Homo sapiens) (UniProt Q00537+Q8ND76). Kind of experiment: Inhibition of recombinant full length human CDK17/cyclinY assessed as residual activity at 1 uM using PKSPKARKKL as substrate incubated for 120 mins in presence of [gamma-33ATP] by scintillation counting based radiometry assay relative to control. It counts as protein-complex assay.
The target in experiment [11] is Casein kinase I isoform alpha (Homo sapiens) (UniProt P48729). Kind of experiment: Inhibition of recombinant human CK1alpha expressed in Escherichia coli assessed as residual activity at 1 uMu sing CK1 peptide as substrate preincubated for 15 mins followed by substrate addition and measured after 30 mins in presence of [gamma-33ATP] by scintillation counting method relative to control. The settings on record: 1 uM.

In experiment [12] the target is Serine/threonine-protein kinase LATS2 (Homo sapiens) (UniProt Q9NRM7). Put plainly: Inhibition of human LATS2 assessed as residual activity at 1 uM by radiometric assay relative to control.
The test system of experiment [13] is Serine/threonine-protein kinase 38 (NDR1). Put plainly: Inhibition of recombinant human NDR1 assessed as residual activity at 1 uM relative to control.

Sequence of Casein kinase I isoform alpha (Homo sapiens) (P48729 2-337 limits assumed): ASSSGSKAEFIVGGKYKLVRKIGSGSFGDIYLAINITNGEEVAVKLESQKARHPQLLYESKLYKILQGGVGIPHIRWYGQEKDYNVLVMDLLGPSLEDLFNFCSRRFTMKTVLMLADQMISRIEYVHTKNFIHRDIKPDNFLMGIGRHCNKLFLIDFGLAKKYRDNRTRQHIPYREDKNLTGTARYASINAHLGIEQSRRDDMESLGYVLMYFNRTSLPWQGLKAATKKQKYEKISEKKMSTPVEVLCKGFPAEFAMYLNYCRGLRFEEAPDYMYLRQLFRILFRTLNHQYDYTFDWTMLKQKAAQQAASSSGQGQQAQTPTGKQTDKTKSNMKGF
Sequence of CDK17/Cyclin-Y (Homo sapiens) (Q00537 whole entry, canonical isoform): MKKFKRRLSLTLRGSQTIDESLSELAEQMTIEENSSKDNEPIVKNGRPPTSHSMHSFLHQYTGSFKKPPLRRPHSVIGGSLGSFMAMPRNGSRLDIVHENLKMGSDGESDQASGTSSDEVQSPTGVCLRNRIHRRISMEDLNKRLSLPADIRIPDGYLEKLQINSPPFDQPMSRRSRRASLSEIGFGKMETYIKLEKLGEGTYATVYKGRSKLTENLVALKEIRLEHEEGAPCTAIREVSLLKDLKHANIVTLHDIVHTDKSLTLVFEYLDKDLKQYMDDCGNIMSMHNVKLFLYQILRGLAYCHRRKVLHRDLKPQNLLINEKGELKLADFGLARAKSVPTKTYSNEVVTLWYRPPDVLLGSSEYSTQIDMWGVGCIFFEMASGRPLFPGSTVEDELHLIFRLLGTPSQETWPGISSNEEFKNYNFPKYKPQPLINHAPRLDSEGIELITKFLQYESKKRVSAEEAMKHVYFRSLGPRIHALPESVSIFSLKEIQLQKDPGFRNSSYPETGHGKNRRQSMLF
Sequence of CDK17/Cyclin-Y (Homo sapiens) (Q8ND76 2-341 partner limits assumed): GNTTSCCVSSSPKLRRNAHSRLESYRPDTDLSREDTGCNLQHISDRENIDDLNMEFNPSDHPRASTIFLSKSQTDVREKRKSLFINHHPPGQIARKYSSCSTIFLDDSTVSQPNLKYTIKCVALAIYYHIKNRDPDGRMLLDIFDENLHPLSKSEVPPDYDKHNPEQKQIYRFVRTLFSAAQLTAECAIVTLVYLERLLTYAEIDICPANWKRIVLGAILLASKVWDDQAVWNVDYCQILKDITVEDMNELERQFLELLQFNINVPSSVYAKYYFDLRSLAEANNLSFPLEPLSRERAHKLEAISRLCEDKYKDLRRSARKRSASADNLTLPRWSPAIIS
Sequence of AP2-associated protein kinase 1 (Homo sapiens) (Q2M2I8 whole entry, looked up): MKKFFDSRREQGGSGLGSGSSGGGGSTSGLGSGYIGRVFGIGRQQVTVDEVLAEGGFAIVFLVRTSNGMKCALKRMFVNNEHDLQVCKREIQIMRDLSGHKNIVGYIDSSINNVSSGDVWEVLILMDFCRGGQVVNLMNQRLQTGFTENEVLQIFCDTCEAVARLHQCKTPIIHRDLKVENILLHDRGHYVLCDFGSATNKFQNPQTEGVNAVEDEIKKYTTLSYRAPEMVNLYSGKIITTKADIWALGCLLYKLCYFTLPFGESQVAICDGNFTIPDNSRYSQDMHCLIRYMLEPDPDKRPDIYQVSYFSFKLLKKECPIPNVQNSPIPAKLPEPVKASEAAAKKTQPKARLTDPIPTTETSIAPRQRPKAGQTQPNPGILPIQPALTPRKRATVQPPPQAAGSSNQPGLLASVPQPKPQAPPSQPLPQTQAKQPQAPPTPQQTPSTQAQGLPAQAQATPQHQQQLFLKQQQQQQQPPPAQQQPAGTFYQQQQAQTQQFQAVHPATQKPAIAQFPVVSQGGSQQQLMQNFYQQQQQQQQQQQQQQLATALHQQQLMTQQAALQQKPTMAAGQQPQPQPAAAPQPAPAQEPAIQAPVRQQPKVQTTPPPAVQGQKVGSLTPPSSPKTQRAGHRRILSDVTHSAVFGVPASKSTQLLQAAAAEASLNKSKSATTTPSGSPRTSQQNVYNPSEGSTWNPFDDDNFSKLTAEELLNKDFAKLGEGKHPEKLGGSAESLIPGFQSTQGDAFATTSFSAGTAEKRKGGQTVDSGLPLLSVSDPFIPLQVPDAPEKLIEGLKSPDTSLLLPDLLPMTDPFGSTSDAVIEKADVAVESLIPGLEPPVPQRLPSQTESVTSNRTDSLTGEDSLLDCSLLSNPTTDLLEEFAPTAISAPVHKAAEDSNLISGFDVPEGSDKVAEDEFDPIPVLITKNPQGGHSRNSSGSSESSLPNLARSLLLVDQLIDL
Sequence of Serine/threonine-protein kinase LATS2 (Homo sapiens) (Q9NRM7 whole entry): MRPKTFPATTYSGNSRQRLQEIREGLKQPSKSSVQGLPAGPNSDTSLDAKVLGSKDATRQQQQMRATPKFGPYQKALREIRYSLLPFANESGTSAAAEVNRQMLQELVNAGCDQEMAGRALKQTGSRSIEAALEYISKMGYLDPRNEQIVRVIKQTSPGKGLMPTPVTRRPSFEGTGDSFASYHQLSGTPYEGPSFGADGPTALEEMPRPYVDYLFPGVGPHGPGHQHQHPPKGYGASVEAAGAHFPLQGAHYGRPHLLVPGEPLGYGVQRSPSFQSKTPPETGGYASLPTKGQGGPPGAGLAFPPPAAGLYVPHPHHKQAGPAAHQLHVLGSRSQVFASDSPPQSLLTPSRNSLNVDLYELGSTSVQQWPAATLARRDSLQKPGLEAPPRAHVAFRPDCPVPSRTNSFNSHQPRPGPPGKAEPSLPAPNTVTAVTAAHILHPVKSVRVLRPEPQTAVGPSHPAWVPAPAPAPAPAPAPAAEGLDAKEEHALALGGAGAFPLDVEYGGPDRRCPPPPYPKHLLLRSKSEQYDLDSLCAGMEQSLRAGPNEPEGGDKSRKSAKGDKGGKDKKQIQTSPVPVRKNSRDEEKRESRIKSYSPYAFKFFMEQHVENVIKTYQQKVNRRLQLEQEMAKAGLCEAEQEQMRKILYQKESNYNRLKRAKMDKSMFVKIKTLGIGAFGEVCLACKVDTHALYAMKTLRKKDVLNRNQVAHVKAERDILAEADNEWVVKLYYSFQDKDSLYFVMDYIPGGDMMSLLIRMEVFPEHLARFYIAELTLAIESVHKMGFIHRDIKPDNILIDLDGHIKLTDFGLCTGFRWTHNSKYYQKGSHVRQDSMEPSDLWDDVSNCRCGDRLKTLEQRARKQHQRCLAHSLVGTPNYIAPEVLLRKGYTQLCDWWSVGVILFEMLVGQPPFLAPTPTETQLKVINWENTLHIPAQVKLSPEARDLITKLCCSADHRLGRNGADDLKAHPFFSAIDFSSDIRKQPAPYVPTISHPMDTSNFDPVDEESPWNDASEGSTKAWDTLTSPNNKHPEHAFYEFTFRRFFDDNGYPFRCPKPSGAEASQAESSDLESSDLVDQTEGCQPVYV

Consider `C=CCOC(=O)c1cc(-c2ccc(/C=C3/NC(=S)NC3=O)o2)ccc1Cl`, for which, in the experiment with HL-60 [1], the inhibition entry is “Dose-dependent effect”. In addition, the Activity entry in the experiment on NB-4 [2] was “Dose-dependent effect”; in experiment [8], 101%; in [9], 82%; in experiment [10] it was 72%; in experiment [11] it was 96%; in experiment [12], 100%. Besides, in experiment [13], the Activity came to 99%. Moreover, the outcome in the experiment with HL-60 [3], in the experiment with NB-4 [4], with NB-4 [5], in the experiment on HL-60 [6] and with NB-4 [7] was Active.

(Values after ChEMBL document CHEMBL4334438, “Discovery of novel glycogen synthase kinase-3α inhibitors: Structure-based virtual screening, preliminary SAR and biological evaluation for treatment of acute myeloid leukemia” (Eur J Med Chem, 2019).)
